Patent US20210292417A1, “HISTAMINE DIHYDROCHLORIDE COMBINATIONS AND USES THEREOF” (Immune Pharmaceuticals LTD., priority 2016, published 2021)

Tests used:
[1] = system: NK cells and CD8+ T cells co-cultured with CD14+ CMML cells; assay: CMML cell-induced lymphocyte cell death, overnight co-culture; assay type: cell-based, human; conditions: DPI 3 μM; for CMML-induced lymphocyte apoptosis / cell death: NK cells and CD8+ T cells, HDC 100 μM, catalase 200U/ml, PJ34 0.5 μM
Experimental: (§1) Lymphocyte cell death. Isolated lymphocyte subsets were co-cultured overnight with primary leukemic monocytes from CMML patients with or without NOX2 inhibitors or other anti-oxidative compounds at 37° C. in 5% CO2. Lymphocyte cell death was assessed by flow cytometry after staining with a LIVE/DEAD® fixable dead cell stain (Life Technologies). In receptor expression assays, purified NK cells where co-cultured overnight with monocytes in the presence or absence of the PARP-1 inhibitor PJ34 ([…]). The following antibodies were used for receptor expression assessment: NKp46-PE (clone: 9E2) and DNAM-1-PE-Cy7 (clone: DX11) from Miltenyi Biotec. NKp80-APC (clone: 4A4.D10) and CD16-BV605 (clone: 3G8) from BD Pharmingen.
Subsets of CD8+ T cells were stained and sorted on a 3-laser […] II flow cytometer (BD Biosciences). The following antibodies were used to distinguish the T cell populations: CD3-Pacific Blue (clone: S4.1) from Life technologies. CD8-APC-H7 (clone: SK1), CD45RA-APC (clone: HI100), CD45RO-PE (clone: UCHL1) and CCR7-PE-Cy7 (clone: G043H7) all from BD Pharmingen. CD8+ T cell subsets were further defined as follows: naive T cells (TN) as CD45RA CCR7+, T central memory cells (TCM) as CD45ROCCR7+, T effector memory cells (TEM) as CD45ROCCR7^− and T effector cells (TEff) as CD45RACCR7^−.

H2R = H2R (Homo sapiens, UniProt P25021); conditions: thioether group replaced by an ether; cited from earlier work
Chain of H2R (P25021 whole entry, species assumed): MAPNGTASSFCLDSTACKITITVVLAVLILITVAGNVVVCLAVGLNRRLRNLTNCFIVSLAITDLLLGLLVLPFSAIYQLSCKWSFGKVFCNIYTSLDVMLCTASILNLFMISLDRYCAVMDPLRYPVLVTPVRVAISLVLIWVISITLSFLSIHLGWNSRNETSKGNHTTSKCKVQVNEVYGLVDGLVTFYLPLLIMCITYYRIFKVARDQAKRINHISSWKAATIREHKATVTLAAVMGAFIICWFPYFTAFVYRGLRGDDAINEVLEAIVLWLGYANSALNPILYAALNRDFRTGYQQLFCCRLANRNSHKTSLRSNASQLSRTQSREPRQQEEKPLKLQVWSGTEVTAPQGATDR

NK cells = assay: NK cell receptor expression after exposure to PJ34; assay type: cell-based, human; conditions: PJ34 in the absence of ROS-producing cells
Experimental: as §1

CD14+ CMML cells [2] = assay: NK cell degranulation against primary CMML cells; assay type: cell-based, human; conditions: IL-2-stimulated NK cells; lintuzumab 1 μg/ml; HDC 100 μM added to lintuzumab
Experimental: Assays of NK cell degranulation and ADCC. NK cell degranulation and cytotoxicity against patient-derived, malignant monocytes were assessed in experiments using lintuzumab (Abbvie, Stockholm, Sweden), a humanized anti-CD33 antibody. NK cells from healthy donors were co-incubated with monocytes, labeled with CellTrace violet stain (Life Technologies), in the presence of anti-CD107a-PE-Cy7 antibody (BD Pharmingen) and anti-oxidative compounds for four hours at 37° C. and 5% CO2. Thereafter, the cells were stained with LIVE/DEAD® fixable dead cell stain (Life Technologies) and assessed for lysis of monocytes and NK cell degranulation by flow cytometry. For culture experiments, cytotoxicity assays and confocal microscopy, Iscoves' modified Dulbecco minimum essential medium (IDMEM) supplemented with 10% human AB+ serum was used.

CD14+ CMML cells [3] = assay: Extracellular ROS production by isoluminol-enhanced chemiluminescence; assay type: cell-based, human; conditions: FACS-sorted CD14+ CMML cells stimulated with fMLF; HDC 50 or 100 μM
Experimental: ROS production. The extracellular ROS production of primary CMML cells was measured by isoluminol-enhanced chemiluminescence as described. In brief, 2×10^5 cells were added to 96-well plates in the presence of isoluminol (10 μg/ml) and horseradish peroxidase (HRP; 4U/ml) and stimulated by the NOX2 inducer N-formyl-methionyl-leucyl-phenylalanine (fMLF; 0.1 μM). Light emission was recorded using a FLUOstar Omega platereader (BMG Labtech).

EL-4 thymoma cell line = assay: EL-4 thymoma tumor growth in mice; assay type: in vivo, mouse; conditions: EL-4-bearing C57BL/6J mice; 1.5 mg histamine dihydrochloride i.p. three times per week; 240 μg each antibody i.p. days 3, 6 and 10
Experimental: The EL-4 thymoma cell line (provided by Dr. Ingo Schmitz, Otto-von-Guericke-University, Magdeburg, Germany) was cultured in DMEM medium (Sigma, Stockholm, Sweden) supplemented with 10% fetal calf serum, 100 U/ml penicillin, 100 μg/ml streptomycin and 2 mM L-glutamine, as described in […]. et al. The Journal of Immunology, volume 194, no. 10, pp. 5014-5021. C57BL/6J mice (6-8 weeks old, purchased from Charles River Laboratories, Sulzfeld, Germany) were inoculated subcutaneously with 1.75-2×10^5 EL-4 tumor cells and treated with saline (control) or 1.5 mg histamine dihydrochloride (purchased from Sigma-Aldrich, Stockholm, Sweden) diluted in saline, by intraperitoneal injections three times per week starting one day before inoculation of cells. Two-hundred forty μg of an antibody against the programmed cell death-1 receptor (anti-mouse PD1, clone RMP1-14, referred to as a-PD1) and 240 μg of an antibody against the programmed death-ligand 1 (anti-mouse PD-L1, clone 10F.9G2, referred to as α-PDL1) (both purchased from BioXcell, West Lebanon, N.H., USA, catalogue numbers BE0146 and BE0101, respectively) were administrated by intraperitoneal injections three, six and ten days after tumor inoculation. Tumors were measured manually every 2-3 days. Tumor size was calculated as length× width.

| Compound | CMML-induced lymphocyte apoptosis / cell death [1] | NK cell degranulation response (CD14+ CMML cells [2]) | further results |
| --- | --- | --- | --- |
| catalase | prevented | – | – |
| CNC(=C[N+](=O)[O-])NCCOCc1ccc(CN(C)C)o1 [AH202399AA] | – | – | reduction of affinity at H2R relative to ranitidine (H2R): > 50 fold |
| CN(C)CC(=O)Nc1ccc2[nH]c(=O)c3ccccc3c2c1 [PJ34] | rescued | – | NK cell receptor expression (NK cells): No down-regulation |
| c1ccc2c(c1)[I+]c1ccccc1-2 [DPI, diphenylene iodonium chloride] | prevented | – | CMML cell-induced apoptosis of sorted CD8+ T cell subsets (TN, TCM, TEM, Teff) ([1]; ratio 1:1, overnight): efficiently rescued all T cell subsets |
| lintuzumab: a humanized anti-CD33 antibody | – | significantly augmented | – |
| Cl.Cl.NCCc1c[nH]cn1 [HDC, histamine dihydrochloride] | prevented | further enhanced | ROS production (CD14+ CMML cells [3]): significantly suppressed; tumor growth (EL-4 thymoma cell line): significantly reduced tumor growth rate |
